Assay results taken from patent US8758988B2, “Cryopreservation of articular cartilage” (The Governors of the University of Alberta, priority 2009, dated 2014).
Where two headings read alike, the source gives them in different places.

Columns and labels:
[1] = Arrhenius fit of CPA diffusion coefficients (constants and activation energies); assay type: physicochemical; conditions: for Ea (activation energy) / Dcwo (Arrhenius constant): Table (1), Arrhenius fit of diffusion coefficients; for Dcwo (Arrhenius constant): R = 0.001986 Kcal/(mol. K)
Description: Full thickness AC (on 5-10 mm bone base) is harvested from the sample tissue using a hand-held coring device and held at 4° C. in 1× Dulbecco's phosphate-buffered saline (PBS) solution (pH 7.1) (Gibco Invitrogen, Carlsbad, Calif.). Each osteochondral dowel (OCD) is assigned to one of four CPA treatment groups [DMSO, PG, EG, glycerol (all at 6.5M, in 1×PBS)] and one of 11 incubation times (1 second, 1, 2, 5, 10, 15, 30, 60, 120, 180 minutes, 24 hours), as well as one of three temperatures (4, 22, 37° C.). Each combination of treatment, time, and temperature is repeated at least three times.
The tissue sample is isolated by scalpel and the tissue returned to 1×PBS for 5 min, then blotted lightly using Kimwipes® tissue (Kimberly-Clark, Roswell, Ga.) to remove excess fluid from the sample surface, weighed (W1), and immediately immersed in 5 ml of CPA solution for the specified incubation time at the specified temperature. After incubation, the sample is removed from the solution, blotted lightly and weighed for a second time (W2). The sample is then placed into a 35×10 mm cell culture dish (Corning Inc., Corning, N.Y.) containing 4 mL of 1×PBS, fully immersed in the PBS and the dish sealed with Parafilm® (American National Can, Chicago, Ill.) and held for 24 h at 22° C. under dark conditions to allow the CPA within the AC disc to fully equilibrate with the surrounding PBS solution. After 24 h, the CPA/PBS solution is mixed using a pipettor and a 1 mL sample is taken into a 1.5 mL microcentrifuge tube (Thermo Fisher Scientific, Waltham, Mass.). From this sample, 50 μL is placed into a μOSMETTE™ micro-osmometer (Precision Systems, Natick, Mass.) to determine its osmolality (Osm).
The values of the diffusion coefficients for the single CPA diffusion in water were used in the calculations. The values of the diffusion coefficients were calculated before, by fitting Fick's law to the experimental data, as explained in the preceding section of this patent labeled “Permeation Kinetics of CPAs in AC matrix”.
[formula] at x=0, and CCPA=C* at x=THK, where C* is the concentration of the CPA in the external bath at each step of the protocol. The temperature dependence of the diffusion coefficients was calculated by fitting an Arrhenius equation to the values of diffusion coefficients obtained for each CPA at 3 different temperatures as in the preceding section of this patent labeled “Permeation Kinetics of CPAs in AC matrix”. The values of diffusion coefficients were taken from Jomha et al (N M Jomha, G K Law, A Abazari, K Rekieh, J A W Elliott, L E McGann. Permeation of several cryoprotectant agents into porcine articular cartilage. Cryobiology 58(1), 110-114, 2009). For F (formamide), 2 values for diffusion coefficients of formamide in water at 2 different temperatures were extracted from the literature:
Then, these values were fitted to an Arrhenius equation to calculate the constant and activation energy for formamide. As an example, the increase in the minimum DMSO concentration in cartilage, diffusing from a bath of 3 M DMSO solution, at −10° C., was calculated by solving Eqn. (8) as the following:
First, the diffusion coefficient of DMSO in water at −10° C. was calculated from the results of the Arrhenius fit in Table (1). DDMSO(at T=−10° C.=263 K)=298.95×10^−9×exp(−3.9/0.001986/263)=1.71×10^−10 m^2/s

[2] = formamide in water, cited from earlier work

Structure (SMILES) | Ea (activation energy) [1] [kcal/mol] | Dcwo (Arrhenius constant) [1] | Diffusion coefficient (m^2/s) ([2]; Temperature 278.2 K) | Diffusion coefficient (m^2/s) ([2]; Temperature 298.15 K) | diffusion coefficient of DMSO in water ([1]; at T=−10° C.=263 K, calculated from the Arrhenius fit in Table (1))
OCCO [E (EG), ethylene glycol] | 3.8 | 183.30 ×10^−9 m^2/s | – | – | –
OCC(O)CO [G (Gly), glycerol] | 5.6 | 208.03 ×10^−9 m^2/s | – | – | –
NC=O [F (Form), formamide] | 4.198 | 1903.510 ×10^−9 m^2/s | 0.95 × 10^−9 m^2/s | 1.58 × 10^−9 m^2/s | –
C[S+](C)[O-] [D (DMSO), dimethyl sulfoxide] | 3.9 | 298.95 ×10^−9 m^2/s | – | – | 1.71×10^−10 m^2/s
CC(O)CO (stereo not shown) [P (PG), propylene glycol] | 6.63 | 16971.0 ×10^−9 m^2/s | – | – | –
